B1: PchE (dihydroaeruginoic acid synthetase, NRPS elongation module of the pyochelin pathway) (enzyme)
chain: MDLPPDSRTALRDWLTEQLADLLGEPLADVRALADDDDLLGCGLDSIRLMYLQERLRARGSTLDFAQLAQRPCLGAWLDLLACADRLSAPATVALPTAQDRDQPFELSSVQQAYWLGRGAGEVLGNVSCHAFLEFRTRDVDPQRLAAAAECVRQRHPMLRARFLDGRQQILPTPPLSCFDLQDWRTLQVDEAERDWQALRDWRAHECLAVERGQVFLLGLVRMPGGEDRLWLSLDLLAADVESLRLLLAELGVAYLAPERLAEPPALHFADYLAHRAAQRAEAAARARDYWLERLPRLPDAPALPLACAPESIRQPRTRRLAFQLSAGESRRLERLAAQHGVTLSSVFGCAFALVLARWSESAEFLLNVPLFDRHADDPRIGEVIADFTTLLLLECRMQAGVSFAEAVKSFQRNLHGAIDHAAFPALEVLREARRQGQPRSAPVVFASNLGEEGFVPAAFRDAFGDLHDMLSQTPQVWLDHQLYRVGDGILLAWDSVVGLFPEGLPETMFEAYVGLLQRLCDSAWGQPADLPLPWAQQARRALLNGQPACATARTLHRDFFLRAAEAPDADALLYRDQRVTRGELAERALRIAGGLREAGVRPGDAVEVSLPRGPQQVAAVFGVLAAGACYVPLDIDQPPARRRLIEEAAGVCLAITEEDDPQALPPRLDVQRLLRGPALAAPVPLAPQASAYVIYTSGSTGVPKGVEVSHAAAINTIDALLDLLRVNASDRLLAVSALDFDLSVFDLFGGLGAGASLVLPAQEQARDAAAWAEAIQRHAVSLWNSAPALLEMALSLPASQADYRSLRAVLLSGDWVALDLPGRLRPRCAEGCRLHVLGGATEAGIWSNLQSVDTVPPHWRSIPYGRPLPGQAYRVVDTHGRDVPDLVVGELWIGGASLARGYRNDPELSARRFVHDAQGRWYRTGDRGRYWGDGTLEFLGRVDQQVKVRGQRIELGEVEAALCAQAGVESACAAVLGGGVASLGAVLVPRLAPRAEGSMDLPAAQPFAGLAEAEAVLTREILGALLEAPLELDDGLRRRWLDWLADSAASALPSLDEALRRLGWQAAGLTAMGNALRGLLAGEQAPAALLLDPWLAPQAVAARLPDGREALARLLEALPTPAAGERLRVAVLDTRAGLWLDQGMASLLRPGLELTLFERSRVLLDAAATRLPERIVVQALDDGLLPAEHLGRYDRVISFAALHAYEASREGLALAAALLRPQGRLLLVDLLCESPLALLGAALLDDRPLRLAELPSLLADLAAAGLAPRCLWRSERIALVEALAPGLGLDAAALQAGLEQRLPQAMRPERLWCLPSLPLNGNGKVDRRRLAESMTRALGECRHEPSAEEPLEAHEQALAECWEAVLKRPVRRREASFFSLGGDSLLATRLLAGIRERFGVRLGMADFYRQPTLAGLARHLQVQTVEIEETQLEEGVL
modifications: phosphopantetheine (pPant) arms on the ArCP and PCP domains; salicyl-pPant or hydroxyphenylthiazolinyl-pPant seen in some conformations
notes: also called Strep II-tagged PchE; source: E. coli BAP1, purified (Strep-Tactin resin, Superose 6 Increase size exclusion)

What was measured:
PchD = PchD (Pseudomonas aeruginosa, UniProt Q9HWG3); conditions: 10 uM PchE, 10 uM PchD, 10 uM SrfD, 5 mM cysteine, 1 mM salicylate, 5 mM ATP, 10 mM MgCl2, 50 mM Tris pH 7.9, 25 C, 2.5 h; PchD loads salicylate onto ArCP of PchE (coupled read-out)
Sequence of PchD (Q9HWG3 whole entry): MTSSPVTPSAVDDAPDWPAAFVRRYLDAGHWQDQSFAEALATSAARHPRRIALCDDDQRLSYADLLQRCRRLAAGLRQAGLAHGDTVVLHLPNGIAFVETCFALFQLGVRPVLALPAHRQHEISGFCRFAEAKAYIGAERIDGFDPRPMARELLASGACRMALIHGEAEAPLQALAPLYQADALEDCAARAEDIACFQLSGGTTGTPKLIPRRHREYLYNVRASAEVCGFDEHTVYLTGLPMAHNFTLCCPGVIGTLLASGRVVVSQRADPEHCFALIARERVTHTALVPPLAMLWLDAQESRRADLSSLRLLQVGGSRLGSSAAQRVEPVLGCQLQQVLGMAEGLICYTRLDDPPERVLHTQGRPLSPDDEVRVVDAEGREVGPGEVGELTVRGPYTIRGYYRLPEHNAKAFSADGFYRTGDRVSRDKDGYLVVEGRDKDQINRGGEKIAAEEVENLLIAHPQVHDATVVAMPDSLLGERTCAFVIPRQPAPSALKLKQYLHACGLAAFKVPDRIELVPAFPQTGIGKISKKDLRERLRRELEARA

[1] = target: the molecule itself; assay: cryo-EM structure; PchE reacted with PchD (0.5:1), salicylate, cysteine, ATP, MgCl2, then purified on Superose 6 Increase in 50 mM Tricine pH 8.0, 1 mM MgCl2; ~4 mg/mL with 1 mM cysteine and ATP; three conformations at 2.97, 3.78 and 3.47 Å

Molecule	in vitro reconstitution, HPLC and LC-MS of products (PchD)	stoichiometry N [1]
O=C(O)c1ccccc1O [salicylate]	PchD is responsible for loading salicylate onto the ArCP domain of PchE	–
B1	–	2
